ChEMBL document CHEMBL1138389, “Identification of selective neuropeptide Y2 peptide agonists” (Bioorg Med Chem Lett, 2007)
Bridge positions count the residues as written; N and C are the ends. Peptide text beside a SMILES is read from it.

Assays:
[1] = target: T1, Neuropeptide Y receptor type 2 (Homo sapiens, UniProt P49146); assay: Displacement of human [125I]PYY from NPY2 receptor expressed in human KAN-TS cells; assay type: cell-based
T1 sequence (P49146 whole entry): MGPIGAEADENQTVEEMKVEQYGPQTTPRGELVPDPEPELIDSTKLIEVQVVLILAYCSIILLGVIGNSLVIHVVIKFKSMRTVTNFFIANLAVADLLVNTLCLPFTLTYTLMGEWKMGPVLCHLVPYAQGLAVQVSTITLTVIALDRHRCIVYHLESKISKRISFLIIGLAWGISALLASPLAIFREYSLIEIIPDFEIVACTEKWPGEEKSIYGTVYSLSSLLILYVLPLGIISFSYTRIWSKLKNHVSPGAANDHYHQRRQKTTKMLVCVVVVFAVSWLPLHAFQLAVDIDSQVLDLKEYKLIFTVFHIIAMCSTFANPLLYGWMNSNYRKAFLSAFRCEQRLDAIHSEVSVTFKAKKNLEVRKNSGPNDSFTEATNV

[2] = target: T2, Neuropeptide Y receptor type 1 (Homo sapiens, UniProt P25929); assay: Displacement of [125I]PYY from NPY1 receptor expressed in human SK-N-MC cells; assay type: cell-based
T2 sequence (P25929 whole entry): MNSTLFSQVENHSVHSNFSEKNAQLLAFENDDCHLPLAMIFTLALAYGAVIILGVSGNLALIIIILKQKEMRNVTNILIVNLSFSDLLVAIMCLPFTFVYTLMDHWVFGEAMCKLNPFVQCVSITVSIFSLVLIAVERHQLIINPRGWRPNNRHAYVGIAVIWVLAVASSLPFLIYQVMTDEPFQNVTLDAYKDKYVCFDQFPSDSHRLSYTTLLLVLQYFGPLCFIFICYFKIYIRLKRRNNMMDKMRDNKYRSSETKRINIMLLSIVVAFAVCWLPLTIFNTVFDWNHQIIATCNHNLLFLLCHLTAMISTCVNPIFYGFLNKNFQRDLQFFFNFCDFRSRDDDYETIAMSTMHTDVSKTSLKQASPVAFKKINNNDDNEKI

[3] = target: T1, Neuropeptide Y receptor type 2; assay: Agonist activity at human NPY2 receptor expressed in human KAN-TS cells by [35S]GTP-gamma-S incorporation assay; assay type: functional, cell-based
[4] = target: T3, Neuropeptide Y receptor type 5 (Homo sapiens, UniProt Q15761); assay: Displacement of [125I]PYY from NPY5 receptor expressed in human HEK293 cells; assay type: cell-based
T3 sequence (Q15761 whole entry): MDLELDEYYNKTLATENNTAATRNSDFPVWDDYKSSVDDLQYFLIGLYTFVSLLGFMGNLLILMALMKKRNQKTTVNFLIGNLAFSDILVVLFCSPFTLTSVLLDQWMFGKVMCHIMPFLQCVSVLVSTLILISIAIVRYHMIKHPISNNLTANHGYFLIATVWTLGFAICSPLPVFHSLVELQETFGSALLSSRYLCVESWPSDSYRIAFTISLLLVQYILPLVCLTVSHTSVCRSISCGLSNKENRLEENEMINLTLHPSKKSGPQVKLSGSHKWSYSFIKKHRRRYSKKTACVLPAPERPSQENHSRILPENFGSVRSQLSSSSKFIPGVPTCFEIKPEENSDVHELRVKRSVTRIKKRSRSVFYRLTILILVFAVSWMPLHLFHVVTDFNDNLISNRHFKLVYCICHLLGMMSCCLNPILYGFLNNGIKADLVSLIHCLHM

Compound	Ki [1]	Ki [2]	EC50 [3]	Ki ([4]; hek293)	Ki ([1]; kan-ts)	Ki ([2]; sk-n-mc)	EC50 ([3]; kan-ts)	Ki [4]
CC(=O)N[C@@H](C)C(=O)N[C@@H](CO)C(=O)N[C@@H](CC(C)C)C(=O)N[C@@H](CCCNC(=N)N)C(=O)N[C@@H](Cc1cnc[nH]1)C(=O)N[C@@H](Cc1ccc(O)cc1)C(=O)N[C@@H](CC(C)C)C(=O)N[C@@H](CC(N)=O)C(=O)N[C@@H](CC(C)C)C(=O)N[C@H](C(=O)N[C@H](C(=O)N[C@@H](CCCNC(=N)N)C(=O)N[C@@H](CCC(N)=O)C(=O)N[C@@H](CCCNC(=N)N)C(=O)N[C@@H](Cc1ccc(O)cc1)C(N)=O)[C@@H](C)O)C(C)C	0.009 µM	0.118 µM	0.013 µM	–	–	–	–	–
CC[C@H](C)[C@@H]1NC(=O)[C@H](CC(C)C)NC(=O)[C@H](CC(N)=O)NC(=O)[C@@H](NC(=O)[C@H](Cc2ccc(O)cc2)NC(=O)[C@H](Cc2cnc[nH]2)NC(=O)[C@H](CCCN=C(N)N)NC(C)=O)CCCCNC(=O)CC[C@@H](C(=O)N[C@@H](CCCN=C(N)N)C(=O)N[C@@H](CCC(N)=O)C(=O)N[C@@H](CCCN=C(N)N)C(=O)N[C@@H](Cc2ccc(O)cc2)C(N)=O)NC1=O (Ac-RHYKNLIERQRY-NH2; lactam 4-8)	–	–	–	> 1 µM	0.075 µM	> 1 µM	0.031 µM	–
Ac-HYLNLVTRQRY-NH2	0.67 µM	> 1 µM	0.43 µM	–	–	–	–	> 1 µM
